From patent US20040197784A1, “Retinoid inducible proteins of vascular smooth muscle cells and uses thereof” (priority 2001, published 2004)
Blank lines part the entries; values can stand above or below the molecule they belong to.

How the values were obtained:
PAC-1 SMC = assay: RISC mRNA expression after atRA, Northern blotting, PAC-1 SMC; assay type: cell-based, rat
Experimental: (§1) 10-20 μg of total RNA from RASMC, PAC-1 SMC, hCASMC or rat tissues was fractionated on 1.1% agarose gel in the presence of 0.66 mol/L formaldehyde, transferred to nylon membrane, and hybridized with a 405 nt RISC cDNA probe labeled with α-^32P-dCTP. For human tissue Northern blotting, a Human Multiple Tissue Northern Blot was obtained from CLONTECH and hybridized with a human RISC DNA probe, cloned from a human BAC (AC007114; obtained from Research Genetics, Inc., Huntsville, Ala.) by PCR. Hybridizations were carried out in Rapid-hyb buffer (Amersham Life Science, Piscataway, N.J.) or Expresshyb Hybridization Solution (CLONTECH, Palo Alto, Calif.) containing labeled probe (˜2×10^6 cpm/ml) at 62-68° C. for 1-2 h or overnight, depending on the probe used. The blots were then washed under stringent conditions and exposed to Kodak XAR films for different lengths of time. Housekeeping genes used as internal controls for equal RNA loading included glyceraldehyde 3-phosphate dehydrogenase (GAPDH), 18 S rRNA, and β-actin.

hCASMC = assay: RISC mRNA expression after atRA, Northern blotting, hCASMC; assay type: cell-based, human
Experimental: as §1

RASMC [1] = assay: Northern blotting of atRA-induced retinoid-response gene mRNA in cultured RASMC; settings: for Peak Fold Induction: 2×10^−6 mol/L atRA; for expression of this gene set (the 14 atRA-inducible clones): Northern blot
Experimental: Rat aortic smooth muscle cells (“RASMC”) were stimulated with atRA for the indicated times and then processed for total RNA isolation and Northern blotting. Two duplicate blots were then sequentially hybridized to each of the 14 cDNAs. Scanning densitometry was performed at each time point and normalized to the corresponding GAPDH signal to ascertain the peak mRNA induction value listed in Table 2.
Cultured rat aortic SMC (RASMC) were derived from aortas of male Sprague-Dawley rats by a combined explant-enzymatic digestion procedure as described previously (Miano et al., “Expression of the Smooth Muscle Cell Calponin Gene Marks the Early Cardiac and Smooth Muscle Cell Lineages During Mouse Embryogenesis,” J. Biol. Chem. 271:7095-7103 (1996), which is hereby incorporated by reference in its entirety). These cells were grown in Dulbecco's Modified Eagle's Medium (DMEM) supplemented with 10% fetal bovine serum (FBS), 2 mM L-glutamine and antibiotics. […] Unless indicated otherwise, cells were grown on 100-mm dishes and treated with either 2×10^−mol/L all-trans-retinoic acid (atRA) or an equal volume of dimethylsulfoxide (DMSO) for various times when culture was 70-80% confluent.
Total RNA from cultured RASMC and rat tissues was isolated by the acid phenol-guanidinium isothiocyanate method (Chomczynski et al., “Single-Step Method of RNA Isolation by Acid Guanidinium Thiocyanate-Phenol-Chloroform Extraction,” Anal. Biochem. 162:156-159 (1987), which is hereby incorporated by reference in its entirety). […] Independent samples of RNA were also obtained from RASMC treated for 3, 6, 12, 24, 48, 72, 96, and 120 hr with 2×10^−6 mol/L atRA to obtain a temporal pattern of expression for each positive clone. In some experiments the effects of cycloheximide (CHX, 2.5 μg/ml) on atRA-induced gene expression were examined. […] Total RNA was size-fractionated in 1.2% agarose-formaldehyde gels, transferred to nylon membranes and then hybridized and washed following standard procedures (ExpressHyb™, CLONTECH, Palo Alto, Calif.). A rat glyceraldehyde phosphate dehydrogenase (GAPDH) or 18 S probe was used as an internal control for RNA loading. Autoradiography was performed and exposure times varied so that band intensities could be reliably quantitated using NIH Image 1.60 analysis software.

RASMC [2] = assay: RISC mRNA expression after atRA, Northern blotting, RASMC; assay type: cell-based, rat
Experimental: FIGS. 9A-B show the induction of retinoid inducible serine carboxypeptidase (“RISC”) mRNA expression by atRA in a time-dependent manner. Total RNA isolated from RASMC treated with 2.0 μM atRA for 0, 3, 6, 12, 24, 48, 72, 96, 120 h was analyzed by Northern blotting with a rat RISC cDNA probe. […] Blots were also probed with GAPDH as a control for equal loading for each lane. Data shown are representative of two independent experiments.
as §1

[3] = system: de novo protein synthesis; assay: CHX effect on de novo protein synthesis and cytotoxicity; assay type: cell-based; settings: CHX 2.5 μg/ml
Experimental: In some experiments the effects of cycloheximide (CHX, 2.5 μg/ml) on atRA-induced gene expression were examined.

RASMC [4] = assay: Cycloheximide (CHX) effects on atRA inducible gene expression, Northern blot; assay type: cell-based, rat; settings: 2.5 μg/ml CHX
Experimental: All 4 genes show atRA-induced mRNA expression after 24 hr stimulation. […] SALF and Src-Suppressed C Kinase Substrate (“SSeCKS”) mRNA induction, however, is protein synthesis-independent. Refer to Table 2 for a complete summary of the CHX sensitivity studies.
To determine whether atRA-induced gene expression required de novo protein synthesis, rat aorta smooth muscle cell tissue was incubated with atRA in the absence or presence of cycloheximide (“CHX”) and then measured the expression of each atRA-inducible gene. […] On the other hand, atRA-induced Stoned B/TFIIAα/β-like factor (“SALF”) and Src Suppressed C Kinase Substrate (“SSeCKS”) mRNA were not blocked with CHX. In fact, there was a slight super-induction of these genes with CHX, shown in FIG. 6, which is a common characteristic of immediate early genes.

PAC1 SMC = assay: Growth of PAC1 SMC stably transfected with RISC (cell counts over 5 days); assay type: cell-based, rat; settings: three stably transfected RISC cell lines, 10% FBS, vs empty vector (mock)
Experimental: Rat or human RISC is cloned into a suitable mammalian expression plasmid including, but not limited to, pEF1/V5-His, and verified for expression by Western blotting (using an antibody that binds the His tag of the RISC-His fusion protein) of transiently-transfected cells. For transient transfection, subconfluent cells are overlayed with a DNA-calcium-phosphate coprecipitate containing the RISC expression plasmid and then allowed to incubate overnight The following day, cells are washed with phosphate-buffered saline and re-fed fresh growth medium for an additional 24-48 hours whereupon standard cell lysates are made for protein analysis via Western blotting. […] Following two weeks of selection in G418, resistant cell “clones” cartying the RISC-His fusion protein are isolated and expanded for further analysis.
Each of three stably transfected cell lines were grown in the presence of 10% FBS for 5 days and on each day total cell numbers were calculated with a hemocytometer. […] A graph illustrating the effects on SMC growth is shown at FIG. 17.

ERK = assay: RISC attenuation of ERK activity (phospho-ERK immunoblot); assay type: cell-based, rat; settings: RISC expressing cells vs mock cells; 30 minutes after serum stimulation
Experimental: Stable cell lines prepared according to Example 3 were grown to subconfluence and made quiescent by serum withdrawal (typically 0.5% FBS for 24-48 hours). Cells were then stimulated with serum or a purified growth factor (PDGF-BB) to stimulate the ERK pathway. At selected times following such stimulation, standard cell extracts were prepared to analyze the activation of ERK as measured by its phosphorylated state with a phospho-specific antibody.

Peak Fold Induction (RASMC [1]; Cathepsin-L mRNA, peak at 72 hr, relative to 0 time point): 3.5 (72 hr) fold
Peak Fold Induction (RASMC [1]; Ceruloplasmin mRNA, peak at 72 hr, relative to 0 time point): 2.0 (72 hr) fold
Peak Fold Induction (RASMC [1]; Endolyn mRNA, peak at 96 hr, relative to 0 time point): 2.0 (96 hr) fold
Peak Fold Induction (RASMC [1]; Epithelin mRNA, peak at 48 hr, relative to 0 time point): 2.9 (48 hr) fold
Peak Fold Induction (RASMC [1]; Importin α mRNA, peak at 12 hr, relative to 0 time point): 4.0 (12 hr) fold
Peak Fold Induction (RASMC [1]; LDH-B mRNA, peak at 24 hr, relative to 0 time point): 4.6 (24 hr) fold
Peak Fold Induction (RASMC [1]; LOX-1 mRNA, peak at 3 hr, relative to 0 time point): 7.2 (3 hr) fold
Peak Fold Induction (RASMC [1]; RDH mRNA, peak at 48 hr, relative to 3 hr time point as baseline): >2.8 (48 hr) fold
Peak Fold Induction (RASMC [1]; SALF mRNA, peak at 3 hr, relative to 0 time point): 4.1 (3 hr) fold
Peak Fold Induction (RASMC [1]; SSAT mRNA, peak at 48 hr, relative to 0 time point): 4.8 (48 hr) fold
Peak Fold Induction (RASMC [1]; SSeCKS mRNA, peak at 12 hr, relative to 0 time point): 4.8 (12 hr) fold
Peak Fold Induction (RASMC [1]; VCAM-1 mRNA, peak at 96 hr, relative to 0 time point): 2.5 (96 hr) fold
Peak Fold Induction (RASMC [1]; tTG mRNA, peak at 12 hr, relative to 3 hr time point as baseline): >4.0 (12 hr) fold
Peak Fold Induction (RASMC [1]; α8-integrin mRNA, peak at 72 hr, relative to 0 time point): 2.4 (72 hr) fold
Molecule: CC1=C(/C=C/C(C)=C/C=C/C(C)=C/C(=O)O)C(C)(C)CCC1 [atRA, all-trans-retinoic acid]
RISC mRNA following atRA stimulation (PAC-1 SMC): increases in RISC mRNA
RISC mRNA following atRA stimulation (hCASMC): increases in RISC mRNA
time of peak increase in RISC mRNA following atRA stimulation (RASMC [2]): around 4 days
RISC mRNA levels (RASMC [2]; 2.0 μM atRA, fresh atRA applied daily, 5 day time course): increased progressively

Molecule: CC1=C(/C=C/C(C)=C/C=C/C(C)=C/C(=O)Nc2ccc(O)cc2)C(C)(C)CCC1 [4-Hydroxyphenylretinamide]
expression of this gene set (the 14 atRA-inducible clones) (RASMC [1]): elevated

Molecule: C[C@@H]1C[C@@H]([C@H](O)CC2CC(=O)NC(=O)C2)C(=O)[C@@H](C)C1 [CHX, cycloheximide]
overt cytotoxicity [3]: without any signs of overt cytotoxicity
reduction of de novo protein synthesis [3]: more than 90%
CHX Inhibit (atRA-induced mRNA expression) (RASMC [4]; Cathepsin-L mRNA): Yes
CHX Inhibit (atRA-induced mRNA expression) (RASMC [4]; Ceruloplasmin mRNA): Yes
CHX Inhibit (atRA-induced mRNA expression) (RASMC [4]; Endolyn mRNA): No
CHX Inhibit (atRA-induced mRNA expression) (RASMC [4]; Epithelin mRNA): Yes
CHX Inhibit (atRA-induced mRNA expression) (RASMC [4]; Importin α mRNA): Yes
CHX Inhibit (atRA-induced mRNA expression) (RASMC [4]; LDH-B mRNA): Yes
CHX Inhibit (atRA-induced mRNA expression) (RASMC [4]; LOX-1 mRNA): No
CHX Inhibit (atRA-induced mRNA expression) (RASMC [4]; RDH mRNA): Yes
CHX Inhibit (atRA-induced mRNA expression) (RASMC [4]; SALF mRNA): not blocked and No
CHX Inhibit (atRA-induced mRNA expression) (RASMC [4]; SSAT mRNA): attenuated and completely blocked and Yes
CHX Inhibit (atRA-induced mRNA expression) (RASMC [4]; SSeCKS mRNA): not blocked and No
CHX Inhibit (atRA-induced mRNA expression) (RASMC [4]; VCAM-1 mRNA): Yes
CHX Inhibit (atRA-induced mRNA expression) (RASMC [4]; tTG mRNA): No
CHX Inhibit (atRA-induced mRNA expression) (RASMC [4]; α8-integrin mRNA): attenuated and completely blocked and Yes
CHX effect on atRA-increased RISC expression (RASMC [2]; 24 hours following treatment): No change in RISC expression
CHX effect on atRA-increased RISC expression (RASMC [2]; 48 hr following atRA treatment): blocked increased RISC expression

Molecule: CC1=C(/C=C/C(C)=C/C=C/C(C)=C\C(=O)O)C(C)(C)CCC1 [13-cis RA]
expression of this gene set (the 14 atRA-inducible clones) (RASMC [1]): elevated

B1: RISC: retinoid inducible serine carboxypeptidase protein, expressed as RISC-His fusion protein in stably transfected PAC1 SMC (protein, UniProt Q920A6 29-452, looked up)
Retinoid-inducible serine …: LNWREQEGKEVWDYVTVREDARMFWWLYYATNPCKNFSELPLVMWLQGGPGGSSTGFGNFEEIGPLDTRLKPRNTTWLQWASLLFVDNPVGTGFSYVNTTDAYAKDLDTVASDMMVLLKSFFDCHKEFQTVPFYIFSESYGGKMAAGISLELHKAIQQGTIKCNFSGVALGDSWISPVDSVLSWGPYLYSVSLLDNKGLAEVSDIAEQVLNAVNKGFYKEATQLWGKAEMIIEKNTDGVNFYNILTKSTPDTSMESSLEFFRSPLVRLCQRHVRHLQGDALSQLMNGPIKKKLKIIPDDVSWGAQSSSVFISMEEDFMKPVIDIVDTLLELGVNVTVYNGQLDLIVDTIGQESWVQKLKWPQLSRFNQLKWKALYTNPKSSETSAFVKSYENLAFYWILKAGHMVPADQGDMALKMMRLVTQQE
modifications: His tag
notes: retinoid inducible serine carboxypeptidase protein, expressed as RISC-His fusion protein in stably transfected PAC1 SMC
cell growth (total cell numbers by hemocytometer) (PAC1 SMC): significant inhibition in cell growth
phospho-ERK activation (ERK): activated less phospho-ERK
